The source made the active and inactive calls. The rule behind the calls is not given here.
Experiments:
[1] = molecular target: T1, Bombesin receptor subtype-3 (Homo sapiens, UniProt P32247); experiment: Displacement of [125I]-[D-Tyr6,beta-Ala11,Phe13,Nle14]-Bombesin (6-14) from human BRS-3
T1 sequence (P32247 whole entry): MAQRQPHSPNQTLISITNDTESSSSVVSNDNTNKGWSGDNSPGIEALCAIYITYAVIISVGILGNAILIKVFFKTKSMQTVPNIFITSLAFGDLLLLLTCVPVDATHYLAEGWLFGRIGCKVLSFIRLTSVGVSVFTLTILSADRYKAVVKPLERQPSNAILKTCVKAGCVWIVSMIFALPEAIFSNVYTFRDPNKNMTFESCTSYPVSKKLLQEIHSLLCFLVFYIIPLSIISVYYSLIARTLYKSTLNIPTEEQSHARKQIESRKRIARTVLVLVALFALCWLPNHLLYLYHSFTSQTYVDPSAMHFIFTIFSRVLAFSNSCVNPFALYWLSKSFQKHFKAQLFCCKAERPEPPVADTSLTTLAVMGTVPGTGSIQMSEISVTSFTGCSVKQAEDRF

[2] = Faction unbound in human plasma at 1 uM; type: ADME, cell-free
[3] = Plasma clearance in rat at 1 mg/kg, iv; type: ADME, organism-based; parameters: dose 1 mg/kg, route intravenous
[4] = molecular target: T1, Bombesin receptor subtype-3; experiment: Agonist activity at human BRS-3 expressed in HEK293AEQ cells assessed as induction of intracellular calcium mobilization by aequorin bioluminescence assay; type: functional, cell-based
[5] = Half life in rat liver microsomes
[6] = Fraction unbound in rat plasma at 1 uM; type: ADME, cell-free
[7] = molecular target: Voltage-gated inwardly rectifying potassium channel KCNH2 (Homo sapiens, UniProt Q12809); experiment: Binding affinity to human ERG
[8] = Oral bioavailability in dog at 1 mg/kg; type: ADME, organism-based, Canis lupus familiaris; conditions: in vivo
[9] = Half life in dog at 0.5 mg/kg, iv; type: ADME, organism-based, Canis lupus familiaris; parameters: dose 0.5 mg/kg, route intravenous; conditions: in vivo
[10] = Plasma clearance in dog at 0.5 mg/kg, iv; type: ADME, organism-based, Canis lupus familiaris; parameters: dose 0.5 mg/kg, route intravenous
[11] = Inhibition of human calcium channel diltiazem binding site
[12] = molecular target: T2, Nuclear receptor subfamily 1 group I member 2 (Homo sapiens, UniProt O75469)
T2 sequence (O75469 whole entry): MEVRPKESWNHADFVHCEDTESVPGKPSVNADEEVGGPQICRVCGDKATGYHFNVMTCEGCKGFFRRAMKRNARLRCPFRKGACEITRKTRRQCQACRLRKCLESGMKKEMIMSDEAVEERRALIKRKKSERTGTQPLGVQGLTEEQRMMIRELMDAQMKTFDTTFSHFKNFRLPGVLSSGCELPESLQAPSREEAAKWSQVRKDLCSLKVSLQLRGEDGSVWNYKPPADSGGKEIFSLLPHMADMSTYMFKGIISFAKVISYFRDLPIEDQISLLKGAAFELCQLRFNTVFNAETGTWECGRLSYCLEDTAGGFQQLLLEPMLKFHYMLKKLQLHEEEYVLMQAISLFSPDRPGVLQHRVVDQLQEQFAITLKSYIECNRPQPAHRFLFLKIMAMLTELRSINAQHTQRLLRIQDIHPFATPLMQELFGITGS

[13] = molecular target: Gastrin-releasing peptide receptor (Homo sapiens, UniProt P30550); experiment: Inhibition of human GRPR
Neuromedin-B receptor = Neuromedin-B receptor (Homo sapiens, UniProt P28336); experiment: Inhibition of human NMBR
[14] = molecular target: T3, Bombesin receptor subtype-3 (Mus musculus, UniProt O54798); experiment: Agonist activity at mouse BRS-3 expressed in HEK293AEQ cells assessed as induction of intracellular calcium mobilization by aequorin bioluminescence assay; type: functional, cell-based
T3 sequence (O54798 whole entry): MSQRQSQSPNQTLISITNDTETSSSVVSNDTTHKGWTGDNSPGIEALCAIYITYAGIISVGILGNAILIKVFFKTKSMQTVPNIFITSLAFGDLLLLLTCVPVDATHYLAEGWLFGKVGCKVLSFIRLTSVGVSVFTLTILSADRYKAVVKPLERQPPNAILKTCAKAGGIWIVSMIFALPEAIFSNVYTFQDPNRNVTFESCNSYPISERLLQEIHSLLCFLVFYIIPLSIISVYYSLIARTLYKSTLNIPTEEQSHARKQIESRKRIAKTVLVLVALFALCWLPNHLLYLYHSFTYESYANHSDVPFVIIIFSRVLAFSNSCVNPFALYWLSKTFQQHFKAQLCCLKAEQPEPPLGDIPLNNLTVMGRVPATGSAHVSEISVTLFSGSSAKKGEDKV

[15] = Binding affinity to dog BRS-3; parameters: species or system Canis lupus familiaris
Mus musculus [16] = experiment: Antiobesity activity in eDIO mouse assessed as reduction of body weight at 25 mg/kg, sc after 14 days; type: functional, organism-based; parameters: dose 25 mg/kg
[17] = Plasma clearance in mouse at 1 mg/kg, iv; type: ADME, organism-based; parameters: dose 1 mg/kg, route intravenous
[18] = molecular target: T3, Bombesin receptor subtype-3; experiment: Displacement of [3H]Bag-3 from mouse BRS-3
[19] = molecular target: T4, Bombesin receptor subtype-3 (Rattus norvegicus, UniProt Q8K418); experiment: Displacement of [3H]Bag-3 from rat BRS-3
T4 sequence (Q8K418 whole entry): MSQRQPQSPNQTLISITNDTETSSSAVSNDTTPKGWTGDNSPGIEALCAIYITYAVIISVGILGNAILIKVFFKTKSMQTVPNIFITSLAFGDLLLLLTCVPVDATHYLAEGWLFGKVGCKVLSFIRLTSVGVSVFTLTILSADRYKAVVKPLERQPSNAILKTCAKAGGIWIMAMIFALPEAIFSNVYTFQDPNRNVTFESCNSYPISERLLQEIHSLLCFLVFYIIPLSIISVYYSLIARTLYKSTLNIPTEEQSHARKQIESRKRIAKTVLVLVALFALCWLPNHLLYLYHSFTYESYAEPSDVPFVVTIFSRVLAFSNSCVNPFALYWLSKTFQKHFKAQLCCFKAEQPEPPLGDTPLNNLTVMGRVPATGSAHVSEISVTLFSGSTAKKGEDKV

Mus musculus [20] = species: Mus musculus; experiment: Antiobesity activity in wild type mouse assessed as reduction of food intake; type: functional, organism-based
Mus musculus [21] = species: Mus musculus; experiment: Antiobesity activity in BRS3 deficient mouse assessed as increase of fasting metabolic rate; type: functional, organism-based
[22] = Agonist activity at rhesus monkey BRS-3 expressed in HEK293AEQ cells assessed as induction of intracellular calcium mobilization by aequorin bioluminescence assay relative to dY peptide; conditions: Macaca mulatta
[23] = Binding affinity to rhesus monkey BRS-3; parameters: species or system Macaca mulatta
[24] = Agonist activity at dog BRS-3 expressed in HEK293AEQ cells assessed as induction of intracellular calcium mobilization by aequorin bioluminescence assay relative to dY peptide; conditions: Canis lupus familiaris
Mus musculus [25] = species: Mus musculus; experiment: Antiobesity activity in BRS3 deficient mouse assessed as reduction of food intake; type: functional, organism-based
Mus musculus [26] = experiment: Antiobesity activity in eDIO mouse assessed as reduction of body weight at 25 mg/kg, sc relative to control; type: functional; parameters: scale not given: the % may be the effect or the level left; conditions: route subcutaneous
[27] = Volume of distribution at steady state in dog at 0.5 mg/kg, iv; type: ADME, organism-based, Canis lupus familiaris; parameters: dose 0.5 mg/kg, route intravenous; conditions: in vivo, read-out: Vdss
[28] = Oral bioavailability in rhesus monkey at 1 mg/kg; type: ADME, organism-based, Macaca mulatta; conditions: in vivo
[29] = Volume of distribution at steady state in rat at 1 mg/kg, iv; type: ADME, organism-based; parameters: dose 1 mg/kg, route intravenous; conditions: in vivo, read-out: Vdss
[30] = molecular target: T4, Bombesin receptor subtype-3; experiment: Agonist activity at rat BRS-3 expressed in HEK293AEQ cells assessed as induction of intracellular calcium mobilization by aequorin bioluminescence assay; type: functional, cell-based
[31] = Agonist activity at rhesus monkey BRS-3 expressed in HEK293AEQ cells assessed as induction of intracellular calcium mobilization by aequorin bioluminescence assay; type: functional, cell-based; conditions: Macaca mulatta
[32] = Half life in rhesus monkey at 0.5 mg/kg, iv; type: ADME, organism-based, Macaca mulatta; parameters: dose 0.5 mg/kg, route intravenous; conditions: in vivo
[33] = Oral bioavailability in mouse at 2 mg/kg, po; type: ADME, organism-based; conditions: in vivo
[34] = Volume of distribution at steady state in mouse at 1 mg/kg, iv; type: ADME, organism-based; parameters: dose 1 mg/kg, route intravenous; conditions: in vivo, read-out: Vdss
[35] = Half life in rat at 1 mg/kg, iv; type: ADME, organism-based; parameters: dose 1 mg/kg, route intravenous; conditions: in vivo
Mus musculus [36] = species: Mus musculus; experiment: Antiobesity activity in wild type mouse assessed as increase of fasting metabolic rate; type: functional, organism-based
[37] = Oral bioavailability in rat at 2 mg/kg; type: ADME, organism-based; conditions: in vivo
[38] = Half life in mouse at 1 mg/kg, iv; type: ADME, organism-based; parameters: dose 1 mg/kg, route intravenous; conditions: in vivo
[39] = Agonist activity at dog BRS-3 expressed in HEK293AEQ cells assessed as induction of intracellular calcium mobilization by aequorin bioluminescence assay; type: functional, cell-based; conditions: Canis lupus familiaris
[40] = Volume of distribution at steady state in rhesus monkey at 0.5 mg/kg, iv; type: ADME, organism-based, Macaca mulatta; parameters: dose 0.5 mg/kg, route intravenous; conditions: in vivo, read-out: Vdss
[41] = Plasma clearance in rhesus monkey at 0.5 mg/kg, iv; type: ADME, organism-based, Macaca mulatta; parameters: dose 0.5 mg/kg, route intravenous

Chain of Voltage-gated inwardly rectifying potassium channel KCNH2 (Q12809 whole entry): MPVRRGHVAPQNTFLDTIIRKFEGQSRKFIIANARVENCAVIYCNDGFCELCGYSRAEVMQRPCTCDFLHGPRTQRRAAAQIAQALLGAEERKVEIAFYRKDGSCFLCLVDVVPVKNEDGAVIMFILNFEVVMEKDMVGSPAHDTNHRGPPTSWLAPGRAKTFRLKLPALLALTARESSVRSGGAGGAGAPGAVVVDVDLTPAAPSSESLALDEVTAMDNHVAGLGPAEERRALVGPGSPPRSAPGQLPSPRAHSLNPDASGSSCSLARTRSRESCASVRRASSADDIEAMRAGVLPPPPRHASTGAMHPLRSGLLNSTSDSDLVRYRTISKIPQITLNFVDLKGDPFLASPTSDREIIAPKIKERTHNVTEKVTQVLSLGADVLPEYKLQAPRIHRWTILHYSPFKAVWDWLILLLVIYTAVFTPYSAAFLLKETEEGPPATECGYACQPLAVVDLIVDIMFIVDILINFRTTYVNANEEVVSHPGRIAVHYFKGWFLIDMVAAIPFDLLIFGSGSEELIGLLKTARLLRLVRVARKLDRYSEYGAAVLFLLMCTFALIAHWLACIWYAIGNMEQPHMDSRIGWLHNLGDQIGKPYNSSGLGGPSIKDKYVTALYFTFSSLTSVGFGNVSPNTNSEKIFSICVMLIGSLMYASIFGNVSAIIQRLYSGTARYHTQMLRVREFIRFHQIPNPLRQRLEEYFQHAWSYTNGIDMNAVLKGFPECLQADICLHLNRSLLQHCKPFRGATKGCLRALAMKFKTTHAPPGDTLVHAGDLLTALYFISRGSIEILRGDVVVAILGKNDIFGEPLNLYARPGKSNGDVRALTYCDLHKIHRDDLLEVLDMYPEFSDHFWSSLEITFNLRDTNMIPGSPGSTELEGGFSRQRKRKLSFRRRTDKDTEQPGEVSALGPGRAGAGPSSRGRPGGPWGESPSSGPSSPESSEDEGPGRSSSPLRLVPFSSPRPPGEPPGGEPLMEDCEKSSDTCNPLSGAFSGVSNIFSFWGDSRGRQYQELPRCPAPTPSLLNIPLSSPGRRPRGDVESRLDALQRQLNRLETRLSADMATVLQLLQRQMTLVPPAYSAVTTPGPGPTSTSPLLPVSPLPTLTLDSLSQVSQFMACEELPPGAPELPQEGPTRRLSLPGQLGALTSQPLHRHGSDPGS
Chain of Neuromedin-B receptor (P28336 whole entry): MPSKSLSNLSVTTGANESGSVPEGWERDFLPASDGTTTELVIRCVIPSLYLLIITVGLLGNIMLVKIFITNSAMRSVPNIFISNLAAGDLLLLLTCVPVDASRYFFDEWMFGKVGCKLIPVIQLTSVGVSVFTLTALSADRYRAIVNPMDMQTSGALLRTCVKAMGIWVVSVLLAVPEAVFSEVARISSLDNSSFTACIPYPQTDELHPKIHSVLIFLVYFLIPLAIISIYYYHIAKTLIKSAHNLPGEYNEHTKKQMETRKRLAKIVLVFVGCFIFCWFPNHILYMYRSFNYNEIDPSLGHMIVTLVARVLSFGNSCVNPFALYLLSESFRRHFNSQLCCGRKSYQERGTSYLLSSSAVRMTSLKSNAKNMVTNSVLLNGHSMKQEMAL
Chain of Gastrin-releasing peptide receptor (P30550 whole entry): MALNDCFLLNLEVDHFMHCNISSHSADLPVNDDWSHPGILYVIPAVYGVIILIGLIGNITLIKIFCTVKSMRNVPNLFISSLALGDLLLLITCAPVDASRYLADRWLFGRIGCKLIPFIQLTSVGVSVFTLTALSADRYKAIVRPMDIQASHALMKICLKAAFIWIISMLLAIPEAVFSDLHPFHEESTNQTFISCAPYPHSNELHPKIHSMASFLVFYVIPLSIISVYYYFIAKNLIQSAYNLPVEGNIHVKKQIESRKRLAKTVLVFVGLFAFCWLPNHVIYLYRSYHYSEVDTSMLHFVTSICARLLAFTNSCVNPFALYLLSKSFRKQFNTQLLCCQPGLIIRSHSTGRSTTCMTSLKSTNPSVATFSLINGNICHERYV

CC(C)(C)Cc1c[nH]c(CC(C)(O)c2ccc(-n3cccn3)cc2)n1 (stereo not drawn)
IC50 [1]: 5 nM
fraction unbound at 1 µM [2]: 0.068
clearance [3]: 110 mL/min/kg
EC50 [4]: 16 nM

CC(C)(C)Cc1c[nH]c(C(C)(O)Cc2ccc(-c3ccc(F)cn3)cc2)n1 (stereo not drawn)
half-life [5]: 1 min
IC50 [1]: 82 nM
fraction unbound at 1 µM [2]: 0.001
clearance [3]: 14 mL/min/kg
fraction unbound at 1 µM [6]: 0.2
Ki [7]: 5900 nM
EC50 [4]: 220 nM

CCC(C)(C)Cc1cnc(CCc2ccc(-c3ccc(F)cn3)cc2)[nH]1
half-life [5]: 3 min
IC50 [1]: 16 nM
clearance [3]: 12 mL/min/kg

CC(O)(Cc1nc(CC2(C(F)(F)F)CC2)c[nH]1)c1ccc(-n2cccn2)cc1 (stereo not drawn)
bioavailability [8]: 29%
IC50 [1]: 11 nM
fraction unbound at 1 µM [2]: 0.032
clearance [3]: 52 mL/min/kg
half-life [9]: 18 min
EC50 [4]: 14 nM
clearance [10]: 10 mL/min/kg

CC(C)(C)Cc1c[nH]c(CC(C)(O)c2ccc(-c3ccc(F)cn3)cc2)n1 (stereo not drawn)
half-life [5]: 5 min
IC50 [1]: 17 nM
IC50 [11]: 1900 nM
fraction unbound at 1 µM [2]: 0.004
EC50 [12]: > 25000 nM
clearance [3]: 28 mL/min/kg
IC50 [13]: > 10000 nM
IC50 (Neuromedin-B receptor): > 10000 nM
fraction unbound at 1 µM [6]: 0.2
Ki [7]: 4200 nM
EC50 [4]: 67 nM

O[C@@](Cc1nc(CC2(C(F)(F)F)CC2)c[nH]1)(c1ccc(-n2cccn2)cc1)C(F)(F)F
EC50 [14]: 21 nM
IC50 [15]: 6.5 nM
Ki [15]: 9.9 nM
Activity (Mus musculus [16]): Active
clearance [17]: 32 mL/min/kg
IC50 [18]: 5.4 nM
Ki [18]: 1.6 nM
IC50 [19]: 1.2 nM
Ki [19]: 0.6 nM
bioavailability [8]: 52%
Activity (Mus musculus [20]): Active
Activity (Mus musculus [21]): inactive
Emax [22]: 110%
IC50 [1]: 27 nM
Ki [1]: 3.7 nM
fraction unbound at 1 µM [2]: 0.01
IC50 [23]: 50 nM
Ki [23]: 2.4 nM
Emax [24]: 100%
Activity (Mus musculus [25]): inactive
Activity (Mus musculus [26]): 8%
Vd [27]: 0.45 L/kg
bioavailability [28]: 18%
clearance [3]: 20 mL/min/kg
Vd [29]: 0.98 L/kg
EC50 [30]: 2.2 nM
EC50 [31]: 6.9 nM
half-life [32]: 60 min
bioavailability [33]: 9.6%
Vd [34]: 2.2 L/kg
half-life [35]: 42 min
half-life [9]: 84 min
Activity (Mus musculus [36]): Active
Ki [7]: > 8000 nM
bioavailability [37]: 64%
EC50 [4]: 14 nM
half-life [38]: 66 min
EC50 [39]: 1.6 nM
Vd [40]: 0.44 L/kg
clearance [41]: 8.8 mL/min/kg
clearance [10]: 5.6 mL/min/kg
